Experimental data taken from PMC9539280 (Advanced Science, 2022).

Columns and labels:
[1] = test system: hCMs (human pluripotent stem cell-derived cardiomyocytes); test: Cytotoxicity assay, calcein-AM/PI double staining, relative cell viability; format: cell-based; conditions: 6 days, escalating concentrations (0.03-3 or 1-30 × 10^−6 M), calcein-AM/PI
Experimental: hCMs were dissociated with 0.25% trypsin/EDTA (25200072, Gibco) and then seeded into 384‐well plates at the density of 8 × 10^3 cells per well. 24 h after seeding, cells were exposed to the drugs at the indicated concentrations for 6 days. Culture media were fully changed every 3 days with new drug supplementation. After drug treatment, cells were stained with calcein‐AM/PI/Hoechst for 20 min using calcein‐AM/PI double staining kit (C542, DOJINDO). Images were captured by the Operetta CLS High‐Content Analysis System (PerkinElmer). Number of live cells (calcein‐AM+/PI‐) and dead cells (PI+) was quantified by using the Harmony 4.9 software (PerkinElmer). Number of live cells was used to calculate the “relative cell viability” as follows (1) relarivecellviability=numberoflivecellsineachtreatment/numberoflivecellsinDMSOcontrol×100%

hCMs [2] = test system: hCMs
hCMs [3] = test system: hCMs; remark: listed apart in the source
[4] = test system: hEHTs (human engineered heart tissues)
hCMs [5] = test system: hCMs; remark: listed apart in the source
[6] = in vivo; cited from earlier work
hCMs [7] = test system: hCMs; remark: listed apart in the source
[8] = test system: hEHTs (human engineered heart tissues); remark: listed apart in the source

With Cc1cccc(/C=N/Nc2cc(N3CCOCC3)nc(OCCc3ccccn3)n2)c1 [Apilimod, apilimod] the “cell viability of hCMs” value [1] was “dose‐dependent decrease”, the “apoptosis of hCMs (TUNEL)” value (hCMs [2]) was “increased apoptosis” and the “intracellular calcium handling properties of hCMs” value (hCMs [3]) was “impair”. The “toxicity to hEHTs” value [4] was “toxic to hEHTs”, the “sarcomere organization of hCMs” value (hCMs [5]) was “sarcomeric disarray” and the Cmax [6] was 270 nM. For the same compound, the calcium transient amplitude (hCMs [7]) was “without apparently affecting”, the “time to 50% decay of the calcium transients” value (hCMs [7]) was “increased” and the “time to peak of the calcium transients” value (hCMs [7]) was “increased”. The “abnormal beating of hEHTs (spontaneous contractility)” value [8] was “more severe”, the “contractile force of hEHTs” value [8] was “much lower” and the “hEHT function (tissue level cardiotoxicity)” value [8] was “weaken hEHT function”. For the same compound, the “passive force of hEHTs” value [8] was “increases of the passive force”.
